Measurements from ChEMBL document CHEMBL4400557, “The potential of click reactions for the synthesis of bioactive triterpenes” (Bioorg Med Chem Lett, 2019).
Blank lines part the entries; values can stand above or below the compound they belong to.

Assays:
MDA-MB-231 = assay: Antiproliferative activity against human MDA-MB-231 cells by SRB assay; type: functional
[1] = Antiproliferative activity against human A375-S2 cells after 72 hrs by MTT assay; type: functional, cell-based; settings: A375-S2, 72 h
HT-1080 = assay: Antiproliferative activity against human HT1080 cells after 72 hrs by MTT assay; type: functional, cell-based; settings: HT-1080, 72 h
[2] = Inhibition of glycogen phosphorylase (unknown origin); parameters: species or system Homo sapiens
[3] = Inhibition of rabbit muscle glycogen phosphorylase; parameters: species or system Oryctolagus cuniculus
[4] = system: Human immunodeficiency virus 1; assay: Antiviral activity against HIV-1 NL4-3; type: functional, organism-based; settings: Human immunodeficiency virus 1, NL4-3
CCRF-CEM = assay: Cytotoxicity in human CCRF-CEM cells incubated for 72 hrs by SRB assay; type: functional, cell-based
HL-60 = assay: Antiproliferative activity against human HL60 cells by MTT assay; type: functional, cell-based
KB = assay: Antiproliferative activity against human KB cells; type: functional, cell-based
AGS = assay: Antiproliferative activity against human AGS cells after 3 days by MTT assay; type: functional, cell-based; settings: 72 h

SMILES: C[C@H]1[C@H](C)CC[C@]2(C(=O)OCCCn3cc(COC(=O)[C@]45CC[C@@H](C)[C@H](C)[C@H]4C4=CC[C@@H]6[C@@]7(C)CC[C@H](O)C(C)(C)[C@@H]7CC[C@@]6(C)[C@]4(C)CC5)nn3)CC[C@]3(C)C(=CC[C@@H]4[C@@]5(C)CC[C@H](O)C(C)(C)[C@@H]5CC[C@]43C)[C@H]12
- GI50 (MDA-MB-231): 1.4 µM

SMILES: CC1(C)CC[C@]2(C(=O)O)CC[C@]3(C)C(=CC[C@@H]4[C@@]5(C)CC[C@H](OCc6cn(CCCCCCn7cc(CO[C@H]8CC[C@]9(C)[C@H]%10CC=C%11[C@@H]%12CC(C)(C)CC[C@]%12(C(=O)O)CC[C@@]%11(C)[C@]%10(C)CC[C@H]9C8(C)C)nn7)nn6)C(C)(C)[C@@H]5CC[C@]43C)[C@@H]2C1
- IC50 [2]: 2.59 µM

SMILES: CCCCCCCCC(=O)OCc1cn(CC(=O)O[C@H]2CC[C@]3(C)[C@H]4CC=C5[C@@H]6CC(C)(C)CC[C@]6(C(=O)O)CC[C@@]5(C)[C@]4(C)CC[C@H]3C2(C)C)nn1
- IC50 [3]: 5.4 µM

SMILES: CO[C@H]1O[C@H](Cn2cc(COC(=O)[C@]34CCC(C)(C)C[C@H]3C3=CC[C@@H]5[C@@]6(C)CC[C@H](O)C(C)(C)[C@@H]6CC[C@@]5(C)[C@]3(C)CC4)nn2)[C@@H](O)[C@H](O)[C@H]1O
- IC50 [2]: 1.4 µM

SMILES: C=C(Cn1cc(-c2ccccc2C=O)nn1)[C@@H]1CC[C@]2(C(=O)O)CC[C@]3(C)[C@H](CC[C@@H]4[C@@]5(C)CC[C@H](OC(C)=O)C(C)(C)[C@@H]5CC[C@]43C)[C@@H]12
- IC50 (CCRF-CEM): 3.3 µM

SMILES: CC1(C)CC[C@]2(C(=O)O)CC[C@]3(C)C(=CC[C@@H]4[C@@]5(C)CC[C@H](OC(=O)CCc6cn(Cc7ccc(Cl)cc7)nn6)C(C)(C)[C@@H]5CC[C@]43C)[C@@H]2C1
- IC50 (AGS): 8.9 µM

Second part, led by results:

- IC50 (HT-1080): 3.51 µM
SMILES: CC1(C)CC[C@]2(C(=O)OCc3cn(-c4ccc([N+](=O)[O-])cc4)nn3)CC[C@]3(C)C(=CC[C@@H]4[C@@]5(C)CC[C@H](O)C(C)(C)[C@@H]5CC[C@]43C)[C@@H]2C1
- IC50 [1]: 4.97 µM

- IC50 [4]: 0.19 µM
SMILES: C=C(C)[C@@H]1CC[C@]2(C(=O)O[Si](c3ccccc3)(c3ccccc3)C(C)(C)C)CC[C@]3(C)[C@H](CC[C@@H]4[C@@]5(C)CC[C@H](O)C(C)(C)[C@@H]5CC[C@]43C)[C@@H]12

- IC50 (HL-60): 1.7 µM
SMILES: C=C(Cn1cc(-c2ccc(F)cc2)nn1)[C@@H]1CC[C@]2(C(=O)O)CC[C@]3(C)[C@H](CC[C@@H]4[C@@]5(C)CC[C@H](O)C(C)(C)[C@@H]5CC[C@]43C)[C@@H]12

- IC50 (KB): 8.1 µM
SMILES: C=C(C)[C@@H]1CC[C@]2(C(=O)NCc3cn(C4CC(n5cc(C)c(=O)[nH]c5=O)OC4CO)nn3)CC[C@]3(C)[C@H](CC[C@@H]4[C@@]5(C)CC[C@H](OC(=O)CC(=O)OC)C(C)(C)[C@@H]5CC[C@]43C)[C@@H]12 (stereo partly specified)
